Values of other authors in US6403086B1, “Administering extracts of morinda citrifolia, red wine, prune, blueberry, pomegranate, apple and an enzyme mixture” (priority 2001, dated 2002).

Settings: supplementation with 30 IU to 100 IU

Substance: vitamin E
- lower risk of heart disease: 41%
